Measurements: patent US20180312493A1, “Antibiotic Compounds, Pharmaceutical Formulations Thereof And Methods And Uses Therefor” (Simon Fraser University, priority 2015, published 2018)
Converted amounts (≈) assume the structure as drawn. Structures can show the parent of a compound that is named as a salt. Where two headings read alike, the source gives them in different places.

What was measured:
[1] = target: T1, MRSA Pyk (Staphylococcus aureus, UniProt Q6GG09); assay: MRSA pyruvate kinase (PK) activity, continuous LDH-coupled assay; format: biochemical, methicillin resistant S. aureus (MRSA252)
T1 construct: made in house; host or cells: E. coli BL-21 (DE3)
T1 sequence (Q6GG09 whole entry): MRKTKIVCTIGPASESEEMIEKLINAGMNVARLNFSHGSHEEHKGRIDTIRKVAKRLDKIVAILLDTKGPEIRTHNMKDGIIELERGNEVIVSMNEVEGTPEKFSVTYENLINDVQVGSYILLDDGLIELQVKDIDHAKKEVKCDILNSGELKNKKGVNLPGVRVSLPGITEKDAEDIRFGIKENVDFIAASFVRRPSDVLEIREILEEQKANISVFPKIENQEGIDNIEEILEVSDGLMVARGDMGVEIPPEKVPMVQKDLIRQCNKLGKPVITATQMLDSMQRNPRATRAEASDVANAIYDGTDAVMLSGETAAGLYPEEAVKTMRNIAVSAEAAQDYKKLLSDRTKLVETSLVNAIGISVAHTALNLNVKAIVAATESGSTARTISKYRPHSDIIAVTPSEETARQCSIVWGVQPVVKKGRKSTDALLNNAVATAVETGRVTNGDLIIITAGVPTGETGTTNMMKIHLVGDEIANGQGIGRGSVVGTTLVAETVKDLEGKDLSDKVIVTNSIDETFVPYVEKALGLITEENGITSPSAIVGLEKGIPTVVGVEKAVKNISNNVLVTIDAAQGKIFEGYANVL
In short: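 Activity monitored continuously as absorbance change at 340 nm from NADH oxidation via coupled lactate dehydrogenase, reactions started with 15 nM recombinant His-tagged PK (MRSA or human isoform) and run at 30° C for up to 5 min. Ki derived by varying inhibitor (0-400 nM) and PEP (2-20 mM) at 2 mM ADP; IC50 by four-parameter fitting.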

[2] = system: K. pneumoniae (C238); assay: In vitro susceptibility, broth microdilution (MIC); format: cell-based; conditions: Klebsiella pneumoniae; K. pneumoniae (C238); read-out: Antimicrobial activity (MIC) K. pneumoniae
In short: (§1)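 CLSI 2-fold serial broth microdilution; K. pneumoniae C238 grown in L-broth, S. aureus ATCC 29213 in Mueller Hinton broth, plates incubated 18–24 h at 37 °C. MIC taken as lowest concentration giving complete growth inhibition by OD600 versus compound-free wells, background-subtracted.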

[3] = system: S. aureus (ATCC29213); assay: In vitro susceptibility, broth microdilution (MIC); format: cell-based; conditions: Staphylococcus aureus
In short: as §1

[4] = system: VRE#2 (2010A); assay: In vitro susceptibility, broth microdilution (MIC); format: cell-based, vancomycin resistant Enterococci; conditions: read-out: Antimicrobial activity (MIC) VRE#2
Description: (§2) Epidemic methicillin resistant S. aureus (MRSA) strain sequenced at the Sanger Centre (MRSA252, NRS71) was obtained from NARSA (Network on Antimicrobial Resistance in S. aureus). Methicillin sensitive S. aureus (ATCC 29213 and 25923), methicillin resistant S. aureus (ATCC BAA-1762), and Salmonella typhimurium (ATCC BAA-185) were obtained from ATCC, The Global Bioresource Center. Acinetobacter baumannii (ATCC 19606 and ATCC 17978), Klebsiella pneumonia (C238), vancomycin resistant Enterococci #2 (2010A) (VRE#2), MRSA (USA400, MW2) and Pseudomonas aeruginosa (PA0-1) were obtained from the laboratory of Dr B. B. Finlay at the University of British Columbia (Vancouver, Canada).
(§3) The antimicrobial activities of PK inhibitor candidates were determined using the 96-well microtiter standard 2-fold serial broth microdilution method as described by CLSI (formerly NCCLS) with the various gram-positive and gram-negative bacteria species mentioned above. Bacteria from a single colony were grown, overnight in either BHI Broth (VRE), mueller hinton broth (S. aureus 29213; MRSA USA400, A. baumannii 19606, MRSA BAA-1762) or L-broth (P. aeruginosa, S. typhimurium, K. pneumonia and A. baumannii 17978). Each compound was prepared in DMSO with 2-fold serial dilutions to give a final concentration of, 0.031 to 64 μg/ml. 10 μl of the compound solution was then added, in duplicate, to either, 190 μl of cation adjusted mueller hinton broth (CAMHB) or 190 μl CAMHB containing ˜2.5×10^5 CFU/ml of bacteria (final compound concentration 0.031 to 64 μg/ml). Culture plates were incubated for 18-24 h at 37° C., and optical density at 600 nm (OD600) was measured using a Benchmark Plus™ microplate spectrophotometer (Bio-Rad™). The absorbance control values for the series containing CAMHB and inhibitor were subtracted as background from the corresponding infected wells. Minimal inhibitory concentration (MIC) was defined as the lowest concentration of test compound leading to complete inhibition of cell growth in relation to compound-free control wells as determined by optical density. Vancomycin, methicillin and ciprofloxicin were used as reference compounds. All assays were run in triplicate or duplicate. Experiments were replicated at least twice to verify reproducibility using the above conditions.

[5] = system: A. baumannii (ATCC 19606); assay: In vitro susceptibility, broth microdilution (MIC); format: cell-based; conditions: Acinetobacter baumannii
Description: as §2, §3

[6] = system: MRSA (ATCC BAA-1762); assay: In vitro susceptibility, broth microdilution (MIC); format: cell-based, methicillin resistant S. aureus; conditions: Staphylococcus aureus, read-out: Antimicrobial activity (MIC) MRSA ATCC BAA1762
Description: as §2, §3

[7] = S. aureus ATCC29213, 18-24 h, 37 C, read-out: Antimicrobial activity (MIC) S. aureus ATCC29213
[8] = ATCC19606, A. baumannii ATCC 19606 (values without asterisk), read-out: Antimicrobial activity (MIC) A. baumannii

CN1CCC(CCNC(=O)c2c(/C=C/c3ccc(Cl)cc3)[nH]c3cc(Br)ccc23)CC1 [Compound 40, (E)-6-Bromo-2-(4-chlorostyryl)-N-(2-(1-methylpiperidin-4-yl)ethyl)-1 H-indole-3-carboxamide]
IC50 [1]: 100 to 1000 nM
MIC [2]: 16 µg/mL (≈ 31.9 µM)
MIC [3, 7]: 8 µg/mL (≈ 16 µM)
MIC ([4]; VRE#2 (2010A)): 8 µg/mL (≈ 16 µM)
MIC [5, 8]: > 64 µg/mL

COCCN1CCC(NCCNC(=O)c2c(-c3cc4cc(Cl)ccc4[nH]3)[nH]c3cc(Br)ccc23)CC1 [Compound 124, 6-Bromo-5′-chloro-N-(2-((1-(2-methoxyethyl)piperidin-4-yl)amino)ethyl)-1H,1′H-[2,2′-biindole]-3-carboxamide]
IC50 [1]: < 100 nM
MIC [3, 7]: 8 µg/mL (≈ 14 µM)
MIC ([6]; MRSA ATCC BAA-1762): 8 µg/mL (≈ 14 µM)
MIC ([4]; VRE#2 (2010A)): 8 µg/mL (≈ 14 µM)
MIC [5, 8]: 16 µg/mL (≈ 27.9 µM)

CN(C)CCNCCNC(=O)c1c(-c2cc3cc(Cl)ccc3[nH]2)[nH]c2cc(Br)ccc12 [Compound 126, 6-Bromo-5′-chloro-N-(2-((2-(dimethylamino)ethyl)amino)ethyl)-1H,1′H-[2,2′-biindole]-3-carboxamide]
IC50 [1]: < 100 nM
MIC [3, 7]: 16 µg/mL (≈ 31.8 µM)
MIC ([6]; MRSA ATCC BAA-1762): 16 µg/mL (≈ 31.8 µM)
MIC ([4]; VRE#2 (2010A)): 8 µg/mL (≈ 15.9 µM)
MIC [5, 8]: 32 µg/mL (≈ 63.6 µM)

COCCN1CCCN(CCNC(=O)c2c(-c3cc4cc(Cl)ccc4[nH]3)[nH]c3cc(Br)ccc23)CC1 [Compound 130, 6-bromo-5′-chloro-N-(2-(4-(2-methoxyethyl)-1,4-diazepan-1-yl)ethyl)-1H,1′H-2,2′-biindole-3-carboxamide]
IC50 [1]: < 100 nM
MIC [3, 7]: 16 µg/mL (≈ 27.9 µM)
MIC ([6]; MRSA ATCC BAA-1762): 16 µg/mL (≈ 27.9 µM)
MIC ([4]; VRE#2 (2010A)): 16 µg/mL (≈ 27.9 µM)
MIC [5, 8]: > 64 µg/mL

CNCCNC(=O)c1c(-c2cc3cc(Cl)ccc3[nH]2)[nH]c2cc(Br)ccc12 [Compound 136, 6-Bromo-5′-chloro-N-(2-(methylamino)ethyl)-1H,1′H-[2,2′-biindole]-3-carboxamide]
IC50 [1]: < 100 nM
MIC [3, 7]: 8 µg/mL (≈ 17.9 µM)
MIC ([6]; MRSA ATCC BAA-1762): 8 µg/mL (≈ 17.9 µM)
MIC ([4]; VRE#2 (2010A)): 8 µg/mL (≈ 17.9 µM)
MIC [5, 8]: 16 µg/mL (≈ 35.9 µM)

CCNCCNC(=O)c1c(-c2cc3cc(Cl)ccc3[nH]2)[nH]c2cc(Br)ccc12 [Compound 137, 6-Bromo-5′-chloro-N-(2-(ethylamino)ethyl)-1H,1′H-[2,2′-biindole]-3-carboxamide]
IC50 [1]: < 100 nM
MIC [3, 7]: 8 µg/mL (≈ 17.4 µM)
MIC ([6]; MRSA ATCC BAA-1762): 8 µg/mL (≈ 17.4 µM)
MIC ([4]; VRE#2 (2010A)): 8 µg/mL (≈ 17.4 µM)
MIC [5, 8]: 32 µg/mL (≈ 69.6 µM)

CC(C)(C)NCCNC(=O)c1c(-c2cc3cc(Cl)ccc3[nH]2)[nH]c2cc(Br)ccc12 [Compound 138, 6-Bromo-N-(2-(tert-butylamino)ethyl)-5′-chloro-1H,1′H-[2,2′-biindole]-3-carboxamide]
IC50 [1]: < 100 nM
MIC [3, 7]: 4 µg/mL (≈ 8.2 µM)
MIC ([6]; MRSA ATCC BAA-1762): 8 µg/mL (≈ 16.4 µM)
MIC ([4]; VRE#2 (2010A)): 4 µg/mL (≈ 8.2 µM)
MIC [5, 8]: 64 µg/mL (≈ 131 µM)

C[n+]1cccc(CNC(=O)c2c(-c3cc4cc(Cl)ccc4[nH]3)[nH]c3cc(Br)ccc23)c1 [Compound 148, 3-((6-bromo-5′-chloro-1H,1′H-[2,2′-biindole]-3-carboxamido)methyl)-1-methylpyridin-1-ium]
IC50 [1]: < 100 nM
MIC [3, 7]: 8 µg/mL
MIC ([6]; MRSA ATCC BAA-1762): 16 µg/mL
MIC ([4]; VRE#2 (2010A)): 16 µg/mL
MIC [5, 8]: > 64 µg/mL

C[n+]1ccc(CCNC(=O)c2c(-c3cc4cc(Cl)ccc4[nH]3)[nH]c3cc(Br)ccc23)cc1 [Compound 149, 4-(2-(6-bromo-5′-chloro-1H,1′H-[2,2′-biindole]-3-carboxamido)ethyl)-1-methylpyridin-1-ium]
IC50 [1]: < 100 nM
MIC [3, 7]: 16 µg/mL
MIC ([6]; MRSA ATCC BAA-1762): 16 µg/mL
MIC ([4]; VRE#2 (2010A)): 16 µg/mL
MIC [5, 8]: > 64 µg/mL

C[n+]1ccccc1CCNC(=O)c1c(-c2cc3cc(Cl)ccc3[nH]2)[nH]c2cc(Br)ccc12 [Compound 150]
IC50 [1]: < 100 nM
MIC [3, 7]: 16 µg/mL
MIC ([6]; MRSA ATCC BAA-1762): 16 µg/mL
MIC ([4]; VRE#2 (2010A)): 32 µg/mL
MIC [5, 8]: > 64 µg/mL

CN(C)CC(=O)OCCCNC(=O)c1c(-c2cc3cc(Cl)ccc3[nH]2)[nH]c2cc(Br)ccc12 [Compound 184, 3-(6-Bromo-5′-chloro-1H, 1′H-[2,2′-biindole]-3-carboxamido)propyl Dimethylglycinate]
IC50 [1]: < 100 nM
MIC [3, 7]: > 64 µg/mL
MIC ([6]; MRSA ATCC BAA-1762): 16 µg/mL (≈ 30.1 µM)
MIC ([4]; VRE#2 (2010A)): > 64 µg/mL
MIC [5, 8]: > 64 µg/mL

C[N+](C)(C)CCCNC(=O)COc1cc2[nH]c(-c3cc4ccc(Br)cc4[nH]3)cc2cc1Cl [Compound 191, 3-(2-((6′-Bromo-5-chloro-1H,1′H-[2,2′-biindol]-6-yl)oxy)acetamido)-N,N,N-trimethylpropan-1-aminium Formate]
IC50 [1]: < 100 nM
MIC ([3]; ATCC29213, read-out: Antimicrobial activity (MIC) S. aureus ATCC29213): 16 µg/mL
MIC [6]: 16 µg/mL
MIC [4]: 16 µg/mL
MIC ([5]; ATCC19606, read-out: Antimicrobial activity (MIC) A. baumannii): > 64 µg/mL

OCCOc1cc2[nH]c(-c3cc4ccc(Br)cc4[nH]3)cc2cc1Cl [Compound 196, 2-((6′-Bromo-5-chloro-1H,1′H-[2,2′-biindol]-6-yl)oxy)ethan-1-ol]
IC50 [1]: < 100 nM
MIC [3, 7]: 16 µg/mL (≈ 39.4 µM)
MIC ([6]; MRSA ATCC BAA-1762): 8 µg/mL (≈ 19.7 µM)
MIC ([4]; VRE#2 (2010A)): > 64 µg/mL
MIC [5, 8]: > 64 µg/mL

CN(C)CC(=O)OCCOc1cc2[nH]c(-c3cc4ccc(Br)cc4[nH]3)cc2cc1Cl [Compound 197, 2-((6′-Bromo-5-chloro-1H,1′H-[2,2′-biindol]-6-yl)oxy)ethyl Dimethylglycinate]
IC50 [1]: < 100 nM
MIC [3, 7]: 8 µg/mL (≈ 16.3 µM)
MIC ([6]; MRSA ATCC BAA-1762): 8 µg/mL (≈ 16.3 µM)
MIC ([4]; VRE#2 (2010A)): 8 µg/mL (≈ 16.3 µM)
MIC [5, 8]: > 64 µg/mL

COc1cc2[nH]c(-c3[nH]c4cc(Br)ccc4c3C(=O)C(F)(F)F)cc2cc1Cl [Compound 200, 1-(6-Bromo-5′-chloro-6′-methoxy-1H, 1′H-[2,2′-biindol]-3-yl)-2,2,2-trifluoroethan-1-one]
IC50 [1]: < 100 nM
MIC [3, 7]: 4 µg/mL (≈ 8.48 µM)
MIC ([6]; MRSA ATCC BAA-1762): 1 µg/mL (≈ 2.12 µM)
MIC ([4]; VRE#2 (2010A)): 1 µg/mL (≈ 2.12 µM)
MIC [5, 8]: > 64 µg/mL

C[N+](C)(CCO/N=C(/c1c(-c2cc3cc(Cl)ccc3[nH]2)[nH]c2cc(Br)ccc12)C(F)(F)F)CC(=O)[O-] [Compound 223, 2-((2-(((1-(6-Bromo-5′-chloro-1H,1′H-[2,2′-biindol]-3-yl)-2,2,2-trifluoroethylidene)amino)oxy)ethyl)dimethylammonio)acetate]
IC50 [1]: 100 to 1000 nM
MIC [3, 7]: 16 µg/mL (≈ 27.3 µM)
MIC ([6]; MRSA ATCC BAA-1762): 8 µg/mL (≈ 13.7 µM)
MIC ([4]; VRE#2 (2010A)): 8 µg/mL (≈ 13.7 µM)
MIC [5, 8]: > 64 µg/mL
